Data published in patent US20240252472A1, “COMBINATIONS FOR TREATING CANCER” (Purdue Pharma L.P., priority 2023, published 2024).

What was measured:
[1] = tested on: CD38 histone H3 acetylation; experiment: ChIP-qPCR of CD38 histone H3 acetylation; format: cell-based, human; settings: MM.1S (similar in RPMI-8226); 2.5 μM, 48 hours; vs DMSO
Description: Chromatin Immunoprecipitation RPMI-8226 and MM.1S cell lines were treated with DMSO or tinostamustine (2.5 μM) for 48 hours. Then, the cells were fixed with Pierce™ fresh methanol-free formaldehyde (ThermoFisher) for 15 minutes and prepared for sonication with the truChIP Chromatin Shearing Kit (Covaris, Woburn, MA, USA), following the manufacturer's instructions and as previously described (Garcia-Gomez et al., Nat Commun 12: 421, 2021).
For ChIP-qPCR, samples were diluted 1/10, and 4 μL and specific primers (Supplementary Table 1) were used for each reaction. RT-qPCR was performed in technical triplicates for each biological replicate, using LightCycler® 480 SYBR Green Mix (Roche). The relative amount of immunoprecipitated DNA was compared to the input DNA for each condition.

[2] = tested on: MICA mRNA; experiment: MICA mRNA by RT-qPCR in MM cell lines; format: cell-based, human; settings: four MM cell lines tested; 1 and 2.5 μM, 36 hours (MOLP-8 6 hours)
Description: (§1) Real time quantitative PCR (RT-qPCR) Total RNA was isolated using the RNeasy Mini Kit (Qiagen, Hilden, Germany). Following reverse transcription, PCR was performed using TaqMan Gene Expression Assays (Applied Biosystems, Foster City, CA, USA): CD38 (Hs01120071_m1), MICA (Hs00741286_m1), MICB (Hs00792952_m1) and GAPDH (Hs99999905_m1). The results were expressed as fold change relative to expression of the target gene in control cells, using endogenous expression of GAPDH for normalization.

[3] = tested on: MICB mRNA; experiment: MICB mRNA by RT-qPCR in MM cell lines; format: cell-based, human; settings: all four MM cell lines except MOLP-8; 1 and 2.5 μM, 36 hours
Description: as §1

[4] = tested on: subcutaneous plasmacytoma derived from MM.1S cells; experiment: First subcutaneous plasmacytoma model, NSG mice with human NK cells; format: in vivo; settings: EDO-S101 30 mg/kg i.v. weekly, daratumumab 8 mg/kg i.p. weekly, 4 weeks; vehicle 30 days
Description: For the first subcutaneous human plasmacytoma model, NSG mice (Charles River Laboratories, Wilmington, MA, USA) were subcutaneously inoculated into the right flank with 3×10^6 MM1S in 100 μL RPMI 1640 medium and 100 μL of Matrigel (BD Biosciences). When tumors developed, mice were injected with human NK cells isolated from buffy coats from healthy donors and randomized (4 mice/group) to receive: EDO-S101 (30 mg/kg, iv weekly), daratumumab (8 mg/kg, ip weekly), a combination thereof, or vehicle (PBS vehicle solution with 15% HPBCD, 1.5% acetic acid, and 1.25% NaHCO3). Both, NK cells and the treatments were administered over four consecutive weeks. Caliper measurements of the tumor diameters were performed three times a week, and the tumor volume was estimated as the volume of a 3D ellipse using the following formula: V=4/3π×(a/2)×(b/2)^2, where “a” and “b” correspond to the longest and shortest diameter, respectively. Animals were killed when their tumors reached 2 cm. Differences in tumor volumes between control and treated groups were evaluated using one-way analysis of variance and Dunn's post-hoc tests. […]

With `Cn1c(CCCCCCC(=O)NO)nc2cc(N(CCCl)CCCl)ccc21` [EDO-S101, 7-(5-(bis(2-chloroethyl)amino)-1-methyl-1H-benzo[d]imidazol-2-yl)-N-hydroxyheptanamide] the “CD38 histone H3 acetylation levels” value [1] was “elevated”, the “expression of MICA at the mRNA level” value [2] was “increased” and the “expression of MICB at the mRNA level” value [3] was “increased”. The median survival [4] was 48 days.
